Here are results for 27 compounds from US20230000870A1, “METHODS OF TREATING CANCER IN BIOMARKER-IDENTIFIED PATIENTS WITH INHIBITORS OF CYCLIN-DEPENDENT KINASE 7 (CDK7)” (Syros Pharmaceuticals, Inc., priority 2019, published 2023).

Some results are limits rather than exact numbers.

In assay [1] the target is CDK7/Cyclin H/MAT1 complex (Homo sapiens, UniProt P50613). As to the kind of experiment: CDK7 kinase inhibition assay (Caliper/LabChip EZ Reader). The assay is classed as biochemical. As to conditions: CDK7/Cyclin H/MAT1 6 nM, ATP 2 mM, 35 min at 27° C. The procedure:
(§1) Compounds of the invention were assayed for inhibition of CDK7, CDK9, CDK12, and CDK2 activity at Biortus Biosciences (Jiangyin, Jiangsu Province, P.R. of China) using kinase assays for each CDK developed with a Caliper/LabChip EZ Reader (Perkin Elmer, Waltham, Mass.).
(§2) Furthermore, the CDK9 inhibition assay used CDK9/Cyclin T1 complex (8 nM) and “5-FAM-CDK9tide” peptide substrate (2 μM, synthesized fluorophore-labeled peptide with the following sequence: 5-FAM-GSRTPMY-NH2 where 5-FAM is defined above and NH2 signifies a C-terminal amide) with 10 mM MgCl2 in the buffer composition listed above. The CDK12 inhibition assay used CDK12 (aa686-1082)/Cyclin K complex (50 nM) and “5-FAM-CDK9tide” (2 μM) as defined above, with 2 mM MgCl2 in the buffer composition above. Additionally, the CDK2 inhibition assay used CDK2/Cyclin E1 complex (0.5 nM) and “5-FAM-CDK7tide” (2 μM) as defined above, with 2 mM MgCl2 in the buffer composition listed above.
(§3) The incubation period at 27° C. for each CDK inhibition assay was chosen such that the fraction of phosphorylated peptide product produced in each assay, relative to the total peptide concentration, was approximately 20% (±5%) for the uninhibited kinase (35 min. for CDK7, 35 min. for CDK2, 3 hr. for CDK12, 15 min. for CDK9).

Assay [2] deals with A673 cells. Briefly: Inhibition of proliferation of A673 cells (CyQUANT, 72 hour). As to conditions: read-out: Inhibition of Proliferation of A673 Cells (calculated IC50). It counts as cell-based, human. The protocol:
A673 Cells: A673 cells are a cell line derived from human muscle Ewing's sarcoma. Representative compounds of the invention were tested at different concentrations (from 4 μM to […]; 0.5 log serial dilutions) for their ability to inhibit the proliferation of A673 cells. Known CDK inhibitors dinaciclib or N-((1S,3R)-3-((5-chloro-4-(1H-indol-3-yl)pyrimidin-2-yl)amino)cyclohexyl)-5-((E)-4-(dimethylamino)but-2-enamido)picolinamide and triptolide were used as positive controls. Cells were grown in Dulbecco's Modified Eagle's Medium, +10% FBS+1 mM Sodium Pyruvate. The cells were cultured at 37° C. in a humidified chamber in the presence of 5% CO2. Proliferation assays were conducted over a 72 hour time period. CyQUANT® (Life Technologies, Chicago, Ill. USA) was used to assess the anti-proliferative effects of the compounds following manufacturer's directions and utilizing the reagents supplied with the CyQUANT® kit.

The target in assay [3] is CDK9/Cyclin T1 complex (Homo sapiens, UniProt P50750). Briefly: CDK9 kinase inhibition assay (Caliper/LabChip EZ Reader). The assay is classed as biochemical. As to conditions: CDK9/Cyclin T1 8 nM, ATP 2 mM, 15 min at 27° C. The procedure:
as §1, §2, §3

Assay [4] has as its target T1, CDK12 (aa686-1082)/Cyclin K complex (Homo sapiens, UniProt Q9NYV4).
T1 construct: CDK12 (aa686-1082)/Cyclin K complex
As to the kind of experiment: CDK12 kinase inhibition assay (Caliper/LabChip EZ Reader). As to conditions: CDK12 (aa686-1082)/Cyclin K 50 nM, ATP 2 mM, 3 hr at 27° C. It counts as biochemical. The protocol:
as §1, §2, §3

The target of assay [5] is CDK2/Cyclin E1 complex (Homo sapiens, UniProt P24941). As to the kind of experiment: CDK2 kinase inhibition assay (Caliper/LabChip EZ Reader). It counts as biochemical. As to conditions: CDK2/Cyclin E1 0.5 nM, ATP 2 mM, 35 min at 27° C. The protocol: as §1, §2, §3

Chain of CDK7/Cyclin H/MAT1 complex (P50613 whole entry): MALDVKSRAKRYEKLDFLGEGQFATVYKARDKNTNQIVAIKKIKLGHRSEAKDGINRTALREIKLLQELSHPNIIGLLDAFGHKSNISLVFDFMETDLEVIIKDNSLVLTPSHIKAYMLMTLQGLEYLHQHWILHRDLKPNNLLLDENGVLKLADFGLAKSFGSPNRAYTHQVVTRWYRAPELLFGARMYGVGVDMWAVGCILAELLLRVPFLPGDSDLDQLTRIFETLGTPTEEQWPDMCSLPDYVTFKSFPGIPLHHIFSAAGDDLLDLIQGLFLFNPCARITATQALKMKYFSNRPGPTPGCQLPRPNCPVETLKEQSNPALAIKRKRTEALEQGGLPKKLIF
Chain of CDK7/Cyclin H/MAT1 complex (P51946 whole entry partner): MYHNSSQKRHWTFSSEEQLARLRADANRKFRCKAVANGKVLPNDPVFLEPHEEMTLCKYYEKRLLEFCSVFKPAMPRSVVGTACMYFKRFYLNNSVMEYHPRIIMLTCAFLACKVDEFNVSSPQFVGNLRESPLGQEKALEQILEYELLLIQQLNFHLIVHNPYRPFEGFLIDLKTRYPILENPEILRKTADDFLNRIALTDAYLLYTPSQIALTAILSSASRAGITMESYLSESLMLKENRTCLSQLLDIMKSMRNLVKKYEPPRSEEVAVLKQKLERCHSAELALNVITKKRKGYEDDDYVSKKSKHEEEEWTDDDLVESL
Chain of CDK7/Cyclin H/MAT1 complex (P51948 whole entry partner): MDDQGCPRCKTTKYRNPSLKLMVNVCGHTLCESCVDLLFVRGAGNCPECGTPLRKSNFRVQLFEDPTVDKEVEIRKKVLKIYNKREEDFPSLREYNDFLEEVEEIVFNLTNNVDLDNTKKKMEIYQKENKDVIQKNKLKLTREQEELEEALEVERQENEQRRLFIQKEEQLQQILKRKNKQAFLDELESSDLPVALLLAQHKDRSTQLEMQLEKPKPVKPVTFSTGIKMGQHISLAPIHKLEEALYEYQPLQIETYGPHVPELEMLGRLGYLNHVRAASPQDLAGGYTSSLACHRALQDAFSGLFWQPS
Chain of CDK9/Cyclin T1 complex (P50750 whole entry): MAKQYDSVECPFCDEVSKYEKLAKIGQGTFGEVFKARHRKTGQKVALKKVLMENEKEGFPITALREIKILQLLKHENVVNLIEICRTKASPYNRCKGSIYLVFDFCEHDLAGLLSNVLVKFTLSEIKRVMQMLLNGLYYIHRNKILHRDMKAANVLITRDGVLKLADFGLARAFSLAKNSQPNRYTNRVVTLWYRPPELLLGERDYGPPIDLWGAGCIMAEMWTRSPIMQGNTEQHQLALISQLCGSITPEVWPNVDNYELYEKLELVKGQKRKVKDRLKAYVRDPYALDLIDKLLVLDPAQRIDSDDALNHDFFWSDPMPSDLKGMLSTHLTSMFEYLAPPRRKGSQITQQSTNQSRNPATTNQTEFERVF
Chain of CDK9/Cyclin T1 complex (O60563 whole entry partner): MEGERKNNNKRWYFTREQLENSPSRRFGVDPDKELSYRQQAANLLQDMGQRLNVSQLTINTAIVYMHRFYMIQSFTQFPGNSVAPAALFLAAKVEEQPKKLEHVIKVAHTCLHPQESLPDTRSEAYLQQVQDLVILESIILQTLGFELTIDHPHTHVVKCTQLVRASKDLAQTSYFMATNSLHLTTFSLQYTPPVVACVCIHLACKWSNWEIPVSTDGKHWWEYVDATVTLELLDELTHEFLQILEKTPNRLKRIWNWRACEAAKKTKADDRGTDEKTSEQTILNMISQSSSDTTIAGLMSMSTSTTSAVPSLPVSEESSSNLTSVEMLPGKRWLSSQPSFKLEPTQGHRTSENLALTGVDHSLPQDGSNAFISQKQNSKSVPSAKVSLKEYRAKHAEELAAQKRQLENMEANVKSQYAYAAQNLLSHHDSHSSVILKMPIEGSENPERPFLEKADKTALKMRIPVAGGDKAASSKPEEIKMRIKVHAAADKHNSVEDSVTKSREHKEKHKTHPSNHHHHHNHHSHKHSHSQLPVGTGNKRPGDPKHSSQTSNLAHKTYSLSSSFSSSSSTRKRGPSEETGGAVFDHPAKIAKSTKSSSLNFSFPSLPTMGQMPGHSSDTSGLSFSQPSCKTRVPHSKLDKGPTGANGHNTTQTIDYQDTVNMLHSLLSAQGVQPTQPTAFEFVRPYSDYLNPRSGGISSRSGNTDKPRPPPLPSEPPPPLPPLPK
T1 sequence (Q9NYV4 686-1082): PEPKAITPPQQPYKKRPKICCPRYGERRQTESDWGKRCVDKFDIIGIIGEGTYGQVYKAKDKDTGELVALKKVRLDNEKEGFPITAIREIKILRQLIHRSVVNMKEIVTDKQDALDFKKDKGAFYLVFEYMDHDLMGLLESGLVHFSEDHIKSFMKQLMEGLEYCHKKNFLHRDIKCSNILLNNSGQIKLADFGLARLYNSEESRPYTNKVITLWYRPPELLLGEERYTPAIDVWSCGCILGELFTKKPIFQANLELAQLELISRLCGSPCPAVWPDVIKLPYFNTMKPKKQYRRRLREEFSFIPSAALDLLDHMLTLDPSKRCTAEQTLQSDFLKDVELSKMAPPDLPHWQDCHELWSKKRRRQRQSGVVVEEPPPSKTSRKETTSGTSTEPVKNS
T1 sequence (O75909 whole entry partner, the tested form may be a part): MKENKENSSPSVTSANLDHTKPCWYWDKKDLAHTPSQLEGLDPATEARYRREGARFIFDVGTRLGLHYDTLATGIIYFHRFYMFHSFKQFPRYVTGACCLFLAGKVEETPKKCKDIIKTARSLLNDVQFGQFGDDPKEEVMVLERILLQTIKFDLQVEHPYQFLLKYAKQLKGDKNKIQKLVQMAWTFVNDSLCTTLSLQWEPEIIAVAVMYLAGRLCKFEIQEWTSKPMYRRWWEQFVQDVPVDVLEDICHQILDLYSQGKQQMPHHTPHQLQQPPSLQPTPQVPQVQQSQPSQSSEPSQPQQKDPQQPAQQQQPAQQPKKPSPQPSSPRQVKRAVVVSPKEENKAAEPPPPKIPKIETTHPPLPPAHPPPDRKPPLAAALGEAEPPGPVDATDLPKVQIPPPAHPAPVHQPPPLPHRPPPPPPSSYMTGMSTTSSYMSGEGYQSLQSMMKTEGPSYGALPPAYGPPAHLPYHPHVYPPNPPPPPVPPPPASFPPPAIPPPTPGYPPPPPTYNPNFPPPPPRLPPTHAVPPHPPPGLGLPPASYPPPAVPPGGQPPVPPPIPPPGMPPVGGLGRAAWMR

Consider `Ic1cnc(NC2CCCNC2)nc1-c1c[nH]c2ccccc12` (stereo not drawn) [Compound 147], for which the IC50 in assay [1] was below 20 nM; in assay [2], below 20 nM; in assay [3] it was 200 to 5000 nM; in assay [4] it was 200 to 5000 nM; in assay [5], 20 to 200 nM.
Take `FC(F)(F)c1cnc(NC2CCCNC2)nc1-c1c[nH]c2c(Cl)cccc12` (stereo not drawn) [Compound 167]: the IC50 in assay [1] is below 20 nM; in assay [2], below 20 nM; in assay [3] it was 200 to 5000 nM; in assay [4], 20 to 200 nM; in assay [5], 200 to 5000 nM.
As to `CC1CNCC(Nc2ncc(Cl)c(-c3c[nH]c4ccccc34)n2)C1` (stereo not drawn) [Compound 201], the IC50 is below 20 nM in assay [1]; below 20 nM in assay [2]; 200 to 5000 nM in assay [3]; 20 to 200 nM in assay [4]; 200 to 5000 nM in assay [5].
Regarding `CCc1cnc(NC2CCCNC2)nc1-c1n[nH]c2ccccc12` (stereo not drawn) [Compound 110], the IC50 in assay [1] is 20 to 200 nM; in assay [2] it was 20 to 200 nM; in assay [3] it was 200 to 5000 nM; in assay [4], 200 to 5000 nM; in assay [5] it was 200 to 5000 nM.
On to `FC(F)(F)c1cnc(NC2CNCC(c3nnc4ccccn34)C2)nc1-c1c[nH]c2ccccc12` (stereo not drawn) [Compound 266], for which the IC50 in assay [1] was 20 to 200 nM; in assay [2], 20 to 200 nM; in assay [3], 200 to 5000 nM; in assay [4] it was 200 to 5000 nM; in assay [5], 200 to 5000 nM.
For the compound `CC(C)n1cc(-c2nc(NC3CCCNC3)ncc2Cl)c2ccccc21` (stereo not drawn) [Compound 127], the IC50 in assay [1] was 200 to 5000 nM; in assay [2], 200 to 5000 nM; in assay [3], 200 to 5000 nM; in assay [4], at least 5000 nM; in assay [5], 200 to 5000 nM.
For the compound `Clc1cnc(NC2CCCNC2)nc1-c1c[nH]c2cccnc12` (stereo not drawn) [Compound 146], the IC50 is at least 5000 nM in assay [1]; 20 to 200 nM in assay [2]; at least 5000 nM in assay [3]; at least 5000 nM in assay [4]; at least 5000 nM in assay [5].
Regarding `Clc1cnc(NC2CCCNC2)nc1-c1c[nH]c2ccncc12` (stereo not drawn) [Compound 117], the IC50 is 20 to 200 nM in assay [1]; 20 to 200 nM in assay [2]; 200 to 5000 nM in assay [3]; 200 to 5000 nM in assay [4]; 200 to 5000 nM in assay [5].
`CCCCCc1ccc2c(-c3nc(N[C@@H]4CCCNC4)ncc3C(F)(F)F)c[nH]c2c1` [Compound 241]: the IC50 in assay [1] is 20 to 200 nM; in assay [2] it was 20 to 200 nM; in assay [3] it was 200 to 5000 nM; in assay [4] it was 200 to 5000 nM; in assay [5] it was 200 to 5000 nM.
Regarding `N#Cc1cc2[nH]cc(-c3nc(NC4CCCNC4)ncc3C(F)(F)F)c2cc1F` (stereo not drawn) [Compound 197], the IC50 was below 20 nM in assay [1]; below 20 nM in assay [2]; 200 to 5000 nM in assay [3]; 200 to 5000 nM in assay [4]; 200 to 5000 nM in assay [5].
As to `CCOP(=O)(OCC)c1ccc2[nH]cc(-c3nc(NC4CCCNC4)ncc3C(F)(F)F)c2c1` (stereo not drawn) [Compound 183], the IC50 in assay [1] was 20 to 200 nM; in assay [2] it was 200 to 5000 nM; in assay [3] it was 200 to 5000 nM; in assay [4], at least 5000 nM; in assay [5], 200 to 5000 nM.
For the compound `CNS(=O)(=O)c1ccc2c(-c3nc(N[C@H]4CCCNC4)ncc3C(F)(F)F)c[nH]c2c1` [Compound 200], the IC50 in assay [1] was below 20 nM; in assay [2] it was 20 to 200 nM; in assay [3] it was 200 to 5000 nM; in assay [4], 200 to 5000 nM; in assay [5] it was 200 to 5000 nM.
For the compound `Cc1cccc2c(-c3nc(NC4CCCNC4)ncc3F)c[nH]c12` (stereo not drawn) [Compound 138], the IC50 in assay [1] is 20 to 200 nM; in assay [2], 200 to 5000 nM; in assay [3] it was 200 to 5000 nM; in assay [4], 200 to 5000 nM; in assay [5], 200 to 5000 nM.
Turning to `N#Cc1ccc2[nH]cc(-c3nc(NC4CCCNC4)ncc3C(F)(F)F)c2c1` (stereo not drawn) [Compound 169], the IC50 in assay [1] is 20 to 200 nM; in assay [2], 200 to 5000 nM; in assay [3], at least 5000 nM; in assay [4] it was 200 to 5000 nM; in assay [5], at least 5000 nM.
On to `O=C(C1CCC(Nc2ncc(C(F)(F)F)c(-c3c[nH]c4ccccc34)n2)CN1)N1CCCC1` (stereo not drawn) [Compound 228], for which the IC50 in assay [1] was below 20 nM; in assay [2], 20 to 200 nM; in assay [3], 200 to 5000 nM; in assay [4] it was 200 to 5000 nM; in assay [5], 200 to 5000 nM.
On to `CCc1cnc(N[C@H]2CCCNC2)nc1-c1c[nH]c2c(C)cccc12` [Compound 137], for which the IC50 in assay [1] is below 20 nM; in assay [2], 20 to 200 nM; in assay [3] it was 200 to 5000 nM; in assay [4] it was 200 to 5000 nM; in assay [5] it was 200 to 5000 nM.
In the case of `Cc1nc(-c2ccc3c(-c4nc(NC5CCCNC5)ncc4C(F)(F)F)c[nH]c3c2)nn1C` (stereo not drawn) [Compound 245], the IC50 is below 20 nM in assay [1]; 20 to 200 nM in assay [2]; at least 5000 nM in assay [3]; 200 to 5000 nM in assay [4]; 200 to 5000 nM in assay [5].
In the case of `CS(=O)(=O)c1cccn2c(C3CNCC(Nc4ncc(C(F)(F)F)c(-c5c[nH]c6ccccc56)n4)C3)nnc12` (stereo not drawn) [Compound 265], the IC50 in assay [1] was 200 to 5000 nM; in assay [2], 20 to 200 nM; in assay [3] it was 200 to 5000 nM; in assay [4], 200 to 5000 nM; in assay [5], 200 to 5000 nM.
Take `OC1CCNCC1Nc1ncc(Cl)c(-c2c[nH]c3ccccc23)n1` (stereo not drawn) [Compound 113]: the IC50 in assay [1] was 20 to 200 nM; in assay [2] it was 200 to 5000 nM; in assay [3], at least 5000 nM; in assay [4], 200 to 5000 nM; in assay [5] it was at least 5000 nM.
On to `FC(F)(F)c1cnc(N[C@@H]2CNCc3ccccc32)nc1-c1c[nH]c2ccccc12` [Compound 215], for which the IC50 was 20 to 200 nM in assay [1]; 200 to 5000 nM in assay [2]; at least 5000 nM in assay [3]; at least 5000 nM in assay [4]; at least 5000 nM in assay [5].
Consider `Cc1cnc(NC2CCCNC2)nc1-c1c[nH]c2ccccc12` (stereo not drawn) [Compound 119], for which the IC50 was 20 to 200 nM in assay [1]; 20 to 200 nM in assay [2]; 200 to 5000 nM in assay [3]; 200 to 5000 nM in assay [4]; at least 5000 nM in assay [5].
Regarding `CC1(C)CCNC[C@H]1Nc1ncc(C(F)(F)F)c(-c2c[nH]c3ccccc23)n1` [Compound 210], the IC50 is 200 to 5000 nM in assay [1]; 200 to 5000 nM in assay [2]; at least 5000 nM in assay [3]; at least 5000 nM in assay [4]; at least 5000 nM in assay [5].
In the case of `FC(F)(F)c1cnc(N[C@H]2CCCNC2)nc1-c1c[nH]c2ccc(-c3ccnnc3)cc12` [Compound 230], the IC50 in assay [1] was below 20 nM; in assay [2], 20 to 200 nM; in assay [3], 200 to 5000 nM; in assay [4], 200 to 5000 nM; in assay [5], 200 to 5000 nM.
Consider `OC1CCC(c2cccc3c(-c4nc(NC5CCCNC5)ncc4C(F)(F)F)c[nH]c23)CC1` (stereo not drawn) [Compound 207], for which the IC50 was below 20 nM in assay [1]; below 20 nM in assay [2]; 200 to 5000 nM in assay [3]; 200 to 5000 nM in assay [4]; 200 to 5000 nM in assay [5].
With `CC(C)CN1CCCC(Nc2ncc(Cl)c(-c3c[nH]c4ccccc34)n2)C1` (stereo not drawn) [Compound 145], the IC50 in assay [1] is 20 to 200 nM; in assay [2] it was 200 to 5000 nM; in assay [3], at least 5000 nM; in assay [4], 200 to 5000 nM; in assay [5], at least 5000 nM.
`CC(C)(O)CCc1ccc2c(-c3nc(NC4CCCNC4)ncc3C(F)(F)F)c[nH]c2c1` (stereo not drawn) [Compound 242]: the IC50 was 20 to 200 nM in assay [1]; 20 to 200 nM in assay [2]; 200 to 5000 nM in assay [3]; 200 to 5000 nM in assay [4]; at least 5000 nM in assay [5].
Turning to `CC1CNCC(Nc2ncc(Cl)c(-c3c[nH]c4ccccc34)n2)C1` (stereo not drawn) [Compound 182], the IC50 was 20 to 200 nM in assay [1]; 20 to 200 nM in assay [2]; 200 to 5000 nM in assay [3]; 200 to 5000 nM in assay [4]; at least 5000 nM in assay [5].
